Source: the supplement of paper PMC10307832

How the values were obtained:
Assay in all cases: relative viability (nuclei count vs DMSO), 5 days (fraction); higher = more cells survive
[1] = compound: C=CC(=O)N1CCC[C@@H](n2nc(-c3ccc(Oc4ccccc4)cc3)c3c(N)ncnc32)C1 [Ibrutinib] + Cc1nc(NC(=O)N2CCC[C@H]2C(N)=O)sc1-c1ccnc(C(C)(C)C(F)(F)F)c1 [Alpelisib] (partner 2 µM)
Outline: (§1)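 Dosing by pin tool came one day after lung cancer cell lines were seeded in 1536-well plates, using either one drug or a fixed anchor-drug dose plus five library-drug doses (not always all listed) in √10 steps. After 5 days, nuclei were counted on 4× images. Relative viability is treated-well nuclei count divided by vehicle-well nuclei count, and values are medians of duplicate plates.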

[2] = compound: C=CC(=O)N1CCC[C@@H](n2nc(-c3ccc(Oc4ccccc4)cc3)c3c(N)ncnc32)C1 [Ibrutinib] + O=C(c1cc(Cc2n[nH]c(=O)c3ccccc23)ccc1F)N1CCN(C(=O)C2CC2)CC1 [Olaparib] (partner 8 µM)
Outline: as §1

[3] = compound: C=CC(=O)Nc1cc(-n2c(=O)ccc3cnc4ccc(-c5ccc(NS(C)(=O)=O)cc5)cc4c32)ccc1C [BMX-IN-1] + O=C(c1cc(Cc2n[nH]c(=O)c3ccccc23)ccc1F)N1CCN(C(=O)C2CC2)CC1 [Olaparib] (partner 8 µM)
Outline: as §1

[4] = compound: C=CCc1cccc(/C=N/NC(=O)CN2CCN(Cc3ccccc3)CC2)c1O [PAC-1] + C[C@@H](Oc1cc(-c2cnn(C3CCNCC3)c2)cnc1N)c1c(Cl)ccc(F)c1Cl [Crizotinib] (partner 1 µM)
Outline: as §1

Row | Cell Line | relative viability ([1]; first compound 0.01581 µM) | relative viability ([1]; first compound 0.05 µM) | relative viability ([1]; first compound 0.1581 µM) | relative viability ([1]; first compound 0.5 µM) | relative viability ([2]; first compound 0.005 µM) | relative viability ([2]; first compound 0.01581 µM) | relative viability ([2]; first compound 0.05 µM) | relative viability ([2]; first compound 0.1581 µM) | relative viability ([2]; first compound 0.5 µM) | relative viability ([3]; first compound 0.02 µM) | relative viability ([3]; first compound 0.2 µM) | relative viability ([3]; first compound 0.6325 µM) | relative viability ([3]; first compound 2 µM) | relative viability ([4]; first compound 0.02 µM) | relative viability ([4]; first compound 0.06325 µM) | relative viability ([4]; first compound 0.2 µM) | relative viability ([4]; first compound 2 µM) | relative viability ([1]; first compound 0.005 µM)
1 | 201T | 0.97 | 1.03 | 1 | 0.938 | 0.844 | 0.848 | 0.841 | 0.816 | 0.793 | 0.84 | 0.904 | 0.844 | 0.83 | 1.07 | 1.09 | 1.02 | 1.05 | –
2 | A549 | 0.681 | 0.634 | 0.854 | 0.761 | – | 0.35 | 0.279 | 0.326 | 0.21 | 0.286 | 0.392 | 0.249 | 0.306 | 0.747 | 0.793 | 0.706 | 0.77 | 0.624
3 | A-427 | 1.08 | 1.11 | 1.09 | 1.14 | 0.71 | 0.722 | 0.723 | – | 0.766 | 0.709 | 0.766 | 0.979 | 0.783 | 0.896 | 1.01 | 0.797 | 0.836 | 1.06
4 | ABC-1 | 0.813 | 1.05 | 1.17 | 0.983 | 0.85 | 0.774 | – | – | 0.844 | 0.749 | 1.02 | 0.815 | 0.978 | 1.09 | 1.16 | 1.11 | 1.34 | 0.922
5 | BEN | 0.906 | 0.944 | 0.891 | 1.06 | 0.984 | 1.11 | 1.09 | 1.11 | 1.2 | 1.26 | 1.02 | 1.05 | 1.15 | 0.92 | 0.882 | 0.804 | 0.832 | 0.785
6 | CAL-12T | 0.831 | 1.14 | 1.18 | 0.698 | 0.665 | 0.677 | 0.658 | 0.818 | 0.506 | 0.822 | 0.71 | 0.695 | 0.759 | 0.72 | 0.828 | 0.551 | 0.578 | –
7 | COR-L23 | 0.702 | 0.73 | 0.775 | 0.865 | 0.398 | 0.31 | 0.363 | 0.385 | 0.327 | 0.286 | 0.373 | 0.439 | 0.327 | 0.646 | 0.607 | 0.599 | 0.624 | 0.947
8 | COR-L 105 | 0.762 | 0.866 | 1.11 | 0.43 | 0.663 | 0.683 | 0.717 | 0.755 | 0.46 | 0.735 | 0.689 | 0.791 | 0.641 | 0.873 | 0.915 | 0.774 | 0.64 | 0.899
9 | Calu-6 | 0.993 | – | 1.06 | 0.93 | 0.673 | 0.582 | 0.576 | 0.599 | 0.589 | 0.533 | 0.656 | 0.607 | 0.565 | 0.728 | 0.823 | 0.8 | 0.867 | 1.02
10 | ChaGo-K-1 | – | – | – | – | 0.445 | 0.421 | 0.424 | 0.436 | 0.426 | 0.435 | 0.443 | 0.416 | 0.417 | 1.15 | 1.17 | 1.09 | 1.03 | –
11 | EBC-1 | 0.856 | 0.79 | 0.936 | 0.895 | 0.718 | 0.645 | 0.606 | 0.737 | 0.797 | 0.734 | 0.689 | 0.779 | 0.762 | 0.194 | 0.175 | 0.201 | 0.178 | 0.852
12 | EKVX | 0.776 | 0.829 | 0.799 | 0.562 | 0.691 | 0.835 | 0.674 | 0.935 | 0.449 | 0.99 | 0.993 | 0.971 | 0.828 | 1.19 | 1.22 | 0.893 | 0.866 | –
13 | EMC-BAC-2 | 0.697 | 0.75 | 0.741 | 0.547 | 0.505 | 0.52 | 0.56 | – | 0.562 | 0.514 | 0.49 | 0.512 | 0.494 | 0.771 | 0.709 | 0.796 | 0.72 | 0.728
14 | EPLC-272H | 1.02 | 0.836 | 0.848 | 0.759 | 0.708 | 0.597 | 0.49 | 0.79 | 0.455 | 0.823 | 0.834 | 0.509 | 0.677 | – | 0.95 | 0.789 | 0.818 | –
15 | H3255 | 0.699 | 0.474 | 1.05 | 0.214 | 0.533 | 0.53 | 0.516 | 0.623 | 0.407 | 0.584 | 0.588 | 0.548 | 0.628 | 0.936 | 0.848 | 0.82 | 0.825 | 0.555
16 | HARA | 0.763 | 0.681 | 0.974 | 0.332 | 0.96 | 0.712 | 0.778 | 0.763 | 0.384 | 1.01 | 0.859 | 0.936 | 0.734 | 0.955 | 1.03 | 1.01 | 1.06 | 0.903
17 | HCC-15 | 0.867 | 0.99 | 0.853 | 0.851 | 0.835 | 0.724 | 0.75 | 0.846 | 0.773 | 0.645 | 0.827 | 0.706 | 0.787 | 0.788 | 0.878 | 0.785 | 0.82 | 0.956
18 | HCC-44 | 0.658 | 0.874 | 0.87 | 0.724 | 1.06 | 0.965 | – | 1 | 1.07 | 1.02 | 0.994 | 1.03 | 1.07 | 0.809 | 0.797 | 0.807 | 0.772 | 0.864
19 | HCC-78 | 0.315 | 0.292 | 0.391 | 0.24 | – | 0.773 | 0.716 | 0.87 | 0.679 | 1.09 | 0.744 | 0.804 | 0.913 | 0.343 | 0.34 | 0.362 | 0.337 | 0.346
